Entries after “also recorded” stand apart in the source; their conditions may differ.
Legend:
[1] = In vivo ocular bioavailability of THC after topical formulations; conditions: for concentration at 1 h: male, New Zealand albino, rabbit, topical
[2] = system: intraocular pressure (IOP) induced model of glaucoma; test: Rabbit glaucoma model, IOP lowering after topical instillation; conditions: THC in Tocrisolve, 50 μL topical
[3] = Thermal stability, 120° C. for 10 min; format: physicochemical; conditions: for CBN content of the sample after heating / Drug remaining / Drug remaining (%) / THC content of the sample after heating: 120° C. for 10 min; for Drug remaining (%): % of initial; for CBN content of the sample, initial / Initial, μg (drug itself) / THC content of the sample, initial: before heating
Experimental: C. Thermal Stability—120° C. for 10 min.

[4] = Aqueous solubility, pH dependent; format: physicochemical
[5] = Plasma THC from HME buccal patches in swine model; format: in vivo; conditions: swine
Experimental: THC was used as control formulation. Plasma was sampled from each animal at predetermined times and the amount of THC in the plasma was determined.
FIG. 20: Plasma THC concentrations as a function of time from THC-Val-HS loaded HME buccal patches. Data represents the mean value from 4 pigs. The animals were maintained under anesthesia for the first 4 hours and were then allowed to come out of anesthesia and given access to food and water.
A dose dependent plasma concentration time profile was then evaluated.
Plasma THC concentrations as a function of time and dose from THC-Val-HS loaded HME patches. Data represents the mean value. The animals for maintained under anesthesia for the first 4 hours and were then allowed to come out of anesthesia and given access to food and water.

[6] = Chemical stability pH dependent at 25° C.; format: physicochemical
Experimental: B. Chemical Stability pH Dependent at 25° C.

[7] = Control (IPBS) stability for the buccal homogenate study; format: physicochemical
Experimental: (§1) b. Porcine Buccal Tissue Homogenate Stability
(§2) Protein Concentration 2 mg/ml

[8] = Porcine buccal tissue homogenate stability; format: in vitro ADME; conditions: protein concentration 2 mg/ml
Experimental: as §1, §2

[9] = Bioreversion: plasma stability, porcine plasma; format: in vitro ADME

## CCCCCc1cc(O)c2c(c1)OC(C)(C)C1CCC(C)=CC21 (stereo not drawn) [THC, Δ^9-Tetrahydrocannabinol, reference compound]
[1]; 1 hour post topical application
  THC concentrations in aqueous humor, iris-ciliary bodies / anterior segment ocular tissues: not observed
[1]; cornea, 50 μL of 0.1% w/v THC
  concentration at 1 h: 1380 ng/g
[1]; cornea, 50 μL of 0.37% w/v THC
  concentration at 1 h: 6010 ng/g
[1]; sclera, 50 μL of 0.1% w/v THC
  concentration at 1 h: 416 ng/g
[1]; sclera, 50 μL of 0.37% w/v THC
  concentration at 1 h: 684 ng/g
[2]
  maximum observed effect, drop in IOP from baseline: 40%
  time for IOP to return to 90% of baseline: ≤ 2 h
  time to maximum effect post topical application: ≤ 30 min
[3]
  Drug loading (%): 85.38 ± 7.25%
  CBN content of the sample after heating: 53.85 ± 1.60 µg
  Drug remaining: 1214.10 ± 39.12 µg
  Drug remaining (%): (95.05 ± 5.05) %
  CBN content of the sample, initial: 56.76 ± 4.86 µg
  Initial, μg (drug itself): 1280.70 ± 108.77 µg
[4]; aqueous medium at pH 2, pH 2, aqueous buffer
  solubility: 0.95 µg/mL
[4]; aqueous medium at pH 3, pH 3, aqueous buffer
  solubility: 2.23 µg/mL
[4]; aqueous medium at pH 4, pH 4, aqueous buffer
  solubility: 1.27 µg/mL
[4]; aqueous medium at pH 5, pH 5, aqueous buffer
  solubility: 2.23 µg/mL
[4]; aqueous medium at pH 6, pH 6, aqueous buffer
  solubility: 2.23 µg/mL
[4]; aqueous medium at pH 7, pH 7, aqueous buffer
  solubility: 2.23 µg/mL
[4]; aqueous medium at pH 8, pH 8, aqueous buffer
  solubility: 2.23 µg/mL
[4]; aqueous medium, pH 3, aqueous buffer
  solubility: 2.23 µM
[4]; aqueous medium, pH 4, aqueous buffer
  solubility: 1.27 µM
[4]; aqueous medium, pH 5, aqueous buffer
  solubility: 2.23 µM
[4]; aqueous medium, pH 6, aqueous buffer
  solubility: 2.23 µM
[4]; aqueous medium, pH 7, aqueous buffer
  solubility: 2.23 µM
[4]; aqueous medium, pH 8, aqueous buffer
  solubility: 2.23 µM
[4]; pH 2, aqueous buffer
  solubility: 0.95 µM
[4]; water
  solubility: 2.23 µM
[4]; water, H20
  solubility: 2.23 µg/mL
[5]; THC loaded HME patch
  Transbuccal systemic bioavailability of THC: no bioavailability; also recorded: extremely poor
[5]; buccal patch
  THC levels in plasma from transmucosal HME patches: No THC levels were detected
[6]; Buffer pH 5.0, 25° C.
  First order rate constant: 0.017 h⁻¹
[6]; Buffer pH 7.0, 25° C.
  First order rate constant: 0.0098 h⁻¹

## CCCCCc1cc(OC(=O)[C@@H](N)CCC(N)=O)c2c(c1)OC(C)(C)[C@@H]1CCC(C)=C[C@@H]21 [THC-Glutaminate (9), Δ^9-THC-glutaminate]
[7]
  K: 26.30 ± 0.14 ×10^−3 min^−1
[3]
  Drug loading (%): 63.41 ± 2.57%
  Drug remaining: 721.31 ± 73.76 µg
  Drug remaining (%): (75.75 ± 4.69) %
  Initial, μg (drug itself): 951.08 ± 38.55 µg
[8]
  K: 40.41 ± 3.30 ×10^−3 min^−1
  T1/2: 17.21 ± 1.40 min
[4]; H20
  Aqueous Solubility: 1.61 ± 0.76 µg/mL
[4]; Water
  Aqueous Solubility: 3.63 ± 1.72 µM
[4]; pH 1.2
  Aqueous Solubility: 59.55 ± 0.02 µg/mL
[4]; pH 1.2, listed as THC-Glutamine
  Aqueous Solubility: 134.25 ± 0.05 µM
[4]; pH 2
  Aqueous Solubility: 162.82 ± 14.39 µg/mL
[4]; pH 2, listed as THC-Glutamine
  Aqueous Solubility: 367.06 ± 32.44 µM
[4]; pH 3
  Aqueous Solubility: 46.29 ± 1.13 µg/mL
[4]; pH 3, listed as THC-Glutamine
  Aqueous Solubility: 104.36 ± 2.55 µM
[4]; pH 4
  Aqueous Solubility: 22.24 ± 2.20 µg/mL
[4]; pH 4, listed as THC-Glutamine
  Aqueous Solubility: 50.13 ± 4.97 µM
[4]; pH 5
  Aqueous Solubility: 5.76 ± 0.02 µg/mL
[4]; pH 5, listed as THC-Glutamine
  Aqueous Solubility: 12.99 ± 0.04 µM
[4]; pH 6
  Aqueous Solubility: 2.15 ± 0.32 µg/mL
[4]; pH 6, listed as THC-Glutamine
  Aqueous Solubility: 4.84 ± 0.72 µM
[4]; pH 7
  Aqueous Solubility: 0.52 ± 0.06 µg/mL
[4]; pH 7, listed as THC-Glutamine
  Aqueous Solubility: 1.18 ± 0.14 µM
[4]; pH 8
  Aqueous Solubility: 0.34 ± 0.33 µg/mL
[4]; pH 8, listed as THC-Glutamine
  Aqueous Solubility: 0.76 ± 0.74 µM
[4]; pH 9
  Aqueous Solubility: 0.16 ± 0.02 µg/mL
[4]; pH 9, listed as THC-Glutamine
  Aqueous Solubility: 0.35 ± 0.04 µM
[9]
  K: 53.41 ± 5.84 ×10^−2 min^−1
  T1/2: 1.31 ± 0.14 min
[6]; Buffer pH 5.0, 25° C.
  First order rate constant: 70.23 ± 0.92 ×10^−3 h^−1
[6]; Buffer pH 7.0, 25° C.
  First order rate constant: 153.42 ± 4.26 ×10^−3 h^−1
[6]; Buffer pH 9.0, 25° C.
  First order rate constant: 756.35 ± 106.61 ×10^−3 h^−1
[6]; Water, 25° C.
  First order rate constant: 32.72 ± 15.19 ×10^−3 h^−1

## CCCCCc1cc(OC(=O)CNC)c2c(c1)OC(C)(C)[C@@H]1CCC(C)=C[C@@H]21 [THC-Sarcosinate (7), Δ^9-THC-sarcosinate]
[7]
  K: 23.47 ± 1.60 ×10^−3 min^−1
[3]
  Drug loading (%): 79.82 ± 0.85%
  CBN content of the sample after heating: 33.83 ± 0.97 µg
  Drug remaining: 841.38 ± 40.18 µg
  THC content of the sample after heating: 54.53 ± 3.35 µg
  Drug remaining (%): (70.30 ± 4.10) %
  CBN content of the sample, initial: 40.05 ± 3.45 µg
  Initial, μg (drug itself): 1197.24 ± 12.69 µg
  THC content of the sample, initial: 26.68 ± 3.80 µg
[8]
  K: 37.36 ± 3.87 ×10^−3 min^−1
[4]; pH 1.2
  Aqueous Solubility: 101.38 ± 29.22 µg/mL
[4]; pH 1.2, listed as THC-Sarcosine
  Aqueous Solubility: 263.16 ± 75.84 µM
[4]; pH 2
  Aqueous Solubility: 151.75 ± 9.33 µg/mL
[4]; pH 2, listed as THC-Sarcosine
  Aqueous Solubility: 393.89 ± 24.21 µM
[4]; pH 3
  Aqueous Solubility: 96.52 ± 2.84 µg/mL
[4]; pH 3, listed as THC-Sarcosine
  Aqueous Solubility: 250.54 ± 7.38 µM
[4]; pH 4
  Aqueous Solubility: 50.74 ± 1.98 µg/mL
[4]; pH 4, listed as THC-Sarcosine
  Aqueous Solubility: 131.70 ± 5.13 µM
[4]; pH 5
  Aqueous Solubility: 7.14 ± 0.72 µg/mL
[4]; pH 5, listed as THC-Sarcosine
  Aqueous Solubility: 18.54 ± 1.87 µM
[4]; pH 6
  Aqueous Solubility: 0.53 ± 0.07 µg/mL
[4]; pH 6, listed as THC-Sarcosine
  Aqueous Solubility: 1.38 ± 0.18 µM
[9]
  K: 63.16 ± 10.44 ×10^−2 min^−1
  T1/2: 1.11 ± 0.18 min
[6]; Buffer pH 5.0, 25° C.
  First order rate constant: 38.35 ± 4.32 ×10^−3 h^−1
[6]; Buffer pH 7.0, 25° C.
  First order rate constant: 605.61 ± 125.14 ×10^−3 h^−1
[6]; Buffer pH 9.0, 25° C.
  First order rate constant: 1209.25 ± 203.05 ×10^−3 h^−1
[6]; Water, 25° C.
  First order rate constant: 25.45 ± 21.99 ×10^−3 h^−1

## CCCCCc1cc(OC(=O)[C@@H](N)Cc2ccc(O)cc2)c2c(c1)OC(C)(C)[C@@H]1CCC(C)=C[C@@H]21 [THC-Tyrosinate (11), Δ^9-THC-tyrosinate]
[7]
  K: 1.11 ± 0.04 ×10^−3 min^−1
[3]
  Drug loading (%): 81.51 ± 4.28%
  CBN content of the sample after heating: 24.42 ± 0.21 µg
  Drug remaining: 1138.93 ± 60.67 µg
  THC content of the sample after heating: 123.75 ± 2.69 µg
  Drug remaining (%): (93.15 ± 0.06) %
  CBN content of the sample, initial: 35.68 ± 1.16 µg
  Initial, μg (drug itself): 1222.61 ± 64.25 µg
  THC content of the sample, initial: 92.95 ± 3.08 µg
[8]
  K: 21.52 ± 0.55 ×10^−3 min^−1
  T1/2: 32.21 ± 0.81 min
[4]; pH 1.2
  Aqueous Solubility: 41.92 ± 2.14 µg/mL
[4]; pH 1.2, listed as THC-Tyrosine
  Aqueous Solubility: 87.76 ± 4.48 µM
[4]; pH 2
  Aqueous Solubility: 15.76 ± 0.66 µg/mL
[4]; pH 2, listed as THC-Tyrosine
  Aqueous Solubility: 33.00 ± 1.38 µM
[4]; pH 3
  Aqueous Solubility: 5.28 ± 1.78 µg/mL
[4]; pH 3, listed as THC-Tyrosine
  Aqueous Solubility: 11.06 ± 3.73 µM
[4]; pH 4
  Aqueous Solubility: 0.73 ± 0.03 µg/mL
[4]; pH 4, listed as THC-Tyrosine
  Aqueous Solubility: 1.52 ± 0.06 µM
[9]
  K: 93.53 ± 8.79 ×10^−2 min^−1
  T1/2: 0.74 ± 0.07 min
[6]; Buffer pH 5.0, 25° C.
  First order rate constant: 6.32 ± 3.14 ×10^−3 h^−1
[6]; Buffer pH 7.0, 25° C.
  First order rate constant: 25.02 ± 0.88 ×10^−3 h^−1
[6]; Buffer pH 9.0, 25° C.
  First order rate constant: 53.88 ± 11.36 ×10^−3 h^−1
[6]; Water, 25° C.
  First order rate constant: 9.40 ± 0.88 ×10^−3 h^−1
